Experimental data from ChEMBL document CHEMBL1136125, “Comparative molecular field analysis (CoMFA) of phthalazine derivatives as phosphodiesterase IV inhibitors” (Bioorg Med Chem Lett, 2003).

What was measured:
Phosphodiesterase 4 [1] = target: T1, Phosphodiesterase 4 (Homo sapiens, UniProt P27815+Q08499+Q07343+Q08493); test: Inhibitory concentration against phosphodiesterase 4.; format: protein assay
Phosphodiesterase 4 [2] = target: T1, Phosphodiesterase 4; test: In vitro inhibitory concentration against phosphodiesterase 4.; format: protein assay

Row | Log IC50 (Phosphodiesterase 4 [1]) | IC50 (Phosphodiesterase 4 [2]) | Compound
1 | -6.84 | 146 nM | COc1cc2c(C)nnc(Cc3c(Cl)cncc3Cl)c2cc1OC1CCCC1
2 | -7.25 |  | COc1ccc2c(Cc3c(Cl)cncc3Cl)nncc2c1OCCCCCc1ccccc1
3 | -7.12 | 75 nM | CCc1nnc(Cc2c(Cl)cncc2Cl)c2cc(OC3CCCC3)c(OC)cc12
4 |  | 153 nM | COc1ccc2c(Cc3c(Cl)cncc3Cl)nncc2c1OC1CCCO1 (stereo unspecified)
